Test results reported in US20250304700A1, “ANTI-BLOOD DENDRITIC CELL ANTIGEN 2 ANTIBODIES AND USES THEREOF” (Biogen MA Inc., priority 2012, published 2025).
“Also recorded” adds a separate entry of the source.

Key:
[1] = system: IFNα production from SLE sera stimulated pDCs; assay: IFNα production after stimulation with SLE sera; assay type: cell-based, human; conditions: sera from an SLE patient at final dilution 1/5
Procedure: The ability of anti-BDCA2 mAb to inhibit IFNα production following stimulation with a physiologically relevant ligand, namely, sera from patients with SLE was also tested. SLE sera are believed to induce type I IFN through complexes of anti-DNA autoantibodies and immunostimulatory hypomethylated DNA that stimulate TLR9. PBMCs were stimulated with sera from an SLE patient (provided by Dr. Gregg Silverman, NYU) and used at a final dilution of 1/5.

[2] = system: TLR9-induced cytokines and chemokines by purified pDCs; assay: ELISA/multiplex of cytokines from CpG-A stimulated purified pDCs; assay type: cell-based, human
Procedure: Shown in FIG. 17 are the amounts of secreted IFNα and IL-6 measured from a representative donor of three tested healthy donors.
BDCA2 ligation suppresses the ability of pDCs to produce type I IFNs in response to TLR ligands (see FIG. 16). […] Specifically, pDCs from human healthy donors were isolated using a two-step magnetic bead separation procedure (MACS kit, Miltenyi Biotec). […] The plates containing pDCs were incubated for 18 hours at 37° C. and supernatants collected for use in ELISA or multiplex assays to measure concentrations of inflammatory cytokines and chemokines.

[3] = system: TLR3-induced IFNα production by PBMC; assay: TLR3-induced IFNα production by PBMC; assay type: cell-based, human; conditions: 1 μM Poly I:C, BIIB059 10 μg/mL to 0.5 ng/ml
Procedure: This experiment was performed to determine whether other cell types triggered with different TLR ligands are still able to produce type I IFN even in the presence of BIIB059. […] PBMC from human healthy donors were stimulated with poly: IC, which is a TLR3 ligand that can potently induce type I IFN predominantly by monocytes. […] The plates were incubated overnight (18 hours) at 37° C. and 5% CO2. 200 μL of the supernatants were collected for evaluation of IFNα levels by ELISA.

[4] = system: TLR9-induced IFNα production; assay: Ex vivo whole blood assay (MxA bioassay) after in vivo dosing; set-up: species or system cynomolgus monkey
Procedure: FIG. 58 is a schematic representation of the Cynomolgus Monkey PK/PD Experimental Design. Nine Cynomolgus monkeys completed the intravenous (IV) dose study. […] At each bleeding time point, a whole blood assay was performed where whole blood from the cynomolgus monkeys was diluted 1:4 with complete RPMI 1640 and stimulated with CPG-A to a final concentration of 200 μg/ml in a 96 well round bottom tissue culture plate and incubated at 37° C. 5% CO2 for 18-20 hours. At the end of the culture, the stimulated whole blood was centrifuged to harvest serum. In the MxA bioassay, A549 cells were stimulated with the harvested serum for 19-20 hours at 37° C. 5% CO2 to induce MxA protein. After 20 hours, A549 cells were lysed and a sandwich ELISA was performed to detect concentrations of MxA protein. IFNα levels (units/mL) were back calculated from a standard curve generated by treating A549 cells with increasing doses of rIFNa.
Intravenous and subcutaneous dosing routes were evaluated for their ability to impact IFNα induction, which was measured using the MxA bioassay according to the experimental plan outlined in FIG. 58. TLR9 ligand (CpG-A) induced measurable quantities of IFNα in whole blood cultures across all time points and in all cynomolgus monkeys, while no IFNα was detected in the control PBS-treated cultures (data not shown).
A more comprehensive analysis of the data was performed using two-way mixed effects analysis of variance (ANOVA) to estimate the mean IFNα and the post versus pre differences for each dose group in the IV-study. Data during the first 24 hours following dosing were excluded due to an observed decrease in peripheral blood plasmacytoid dendritic cell percentages. Data for bleeds after day 31 post-dose were excluded from the analysis due to the return of BDCA2 expression observed at this time. For the vehicle dosed group, the geometric mean IFNα was 362 Units/mL (U/mL) pre-dose, and 314 U/mL post-dose; for the 1 mg/kg dosed group, the geometric mean was 399 U/mL pre-dose, and 237 U/mL post-dose; for the 10 mg/kg group, the geometric mean IFNα was 211 U/mL pre-dose, and 102 U/mL post-dose (FIG. 4). The post-pre differences in mean log 10 IFNα were-0.061 (p=0.511) for the Vehicle group, −0.226 (p=0.016) for the 1 mg/kg group, and −0.317 (p=0.004) for the 10 mg/kg group.
For the subcutaneously-dosed cynomolgus monkey cohort, a one-way analysis of variance (ANOVA) with random effects was used to estimate the mean IFNα and the post versus pre differences for the entire group. Data during the first 24 hours following dosing were excluded due to an observed decrease in peripheral blood plasmacytoid dendritic cell percentages. Data for bleeds after day 33 post-dose were excluded from the analysis due to the recovery of BDCA2 expression observed at this time. For the subcutaneously dosed group, the geometric mean IFNα was 1243 U/mL pre-dose and 812 U/mL post-dose, yielding a post/pre ratio of 65%. The post-pre difference in mean log 10 was estimated to be −0.185 (p=0.059) which, after anti-log 10 transformation, corresponds to 10^(−0.185)=65% of the pre-dose geometric mean; the 95% CI of this effect is 41%-102% (FIG. 61).

[5] = system: TLR9-induced IFNα production in whole blood; assay: Pre-incubation (internalization) before TLR9 stimulation, IFNα in whole blood; assay type: cell-based, human; conditions: up to 9 hours pre-incubation, then 200 μg/mL CpG-A for 18 hours
Procedure: The following experiment was conducted to ascertain whether BIIB059-mediated receptor internalization affected IFN inhibition. […] At each time point after pre-incubation, cells were challenged with 200 μg/mL CpGA and incubated for an additional 18 hours at 37° C. Supernatants were collected for use in IFNα ELISA assays (PBL InterferonSource). The assays were performed according to the manufacturer's protocol. FIG. 19B is a representative experiment of 3 independent experiments performed. […] In addition, we have previously shown that bivalent binding was necessary for anti-BDCA2 mediated IFN inhibition.
At each time point after pre-incubation, cells were stimulated with 200 μg/mL TLR9 ligand (CpG-A) and incubated for an additional 18 hours at 37° C. Supernatants were collected for use in IFNα ELISA assays (PBL InterferonSource).

[6] = 5 μM CPG-A, increasing concentrations of BIIB059

Substance	IFNα production [1]	TLR9-induced IFNα, TNFα, IL-6, CCL3, CCL4, CCL5 ([2]; 1 μM CPG-A, 10 μg/mL antibody, 18 hours)	IFNα production [2, 6]	IL-6 production [2, 6]	ability to inhibit CPG-A-induced IFNα by pDCs ([2]; BIIB059 compared with 24F4A-Agly)	TLR3-induced IFNα production [3]	IFNα post-dose, of the pre-dose geometric mean ([4]; 0.2 mg/kg SC) [%]	post-pre difference in mean log 10 IFNα ([4]; 0.2 mg/kg SC)	geometric mean IFNα post-dose ([4]; 0.2 mg/kg SC, up to day 33) [U/mL]	IFN concentration post-dose compared to pre-dose ([4]; 1 mg/kg IV) [%]	post-pre difference in mean log 10 IFNα ([4]; 1 mg/kg IV)	geometric mean IFNα post-dose ([4]; 1 mg/kg IV, up to day 31) [U/mL]	IFN concentration post-dose compared to pre-dose ([4]; 10 mg/kg IV) [%]	geometric mean IFNα post-dose ([4]; 10 mg/kg IV) [U/mL]	post-pre difference in mean log 10 IFNα ([4]; 10 mg/kg IV)	TLR9-induced IFN production ex vivo, in words ([4]; dosed in vivo, IV and SC)	effect of pre-incubation on IFNα inhibition [5]
24F4S: hu24F4 H4/L1 with C95S light chain; differs from BIIB059 by 1 amino acid residue	completely abrogated																
BIIB059: humanized IgG1 anti-BDCA2 antibody, mature heavy chain SEQ ID NO: 4 and mature light chain SEQ ID NO: 3		potently inhibited	potently inhibited	greatly reduced	undistinguishable	did not impact	65	−0.185	812	59	−0.226	237	48	102	−0.317	trend towards inhibited TLR9-induced IFN production	did not affect IFN inhibition; also recorded: did not alter the ability of BIIB059 to inhibit
